# Data: patent US6737383B1, “Herbicidal oxadiazolidines” (priority 1999, dated 2004)
# What was measured:
# [1] = tested on: velvetleaf; test: Test B pre/postemergence velvetleaf; assay type: in vivo, Abutilon theophrasti
# Summary of the method: (§1)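 Test chemicals in a non-phytotoxic solvent mixture with surfactant were sprayed preemergence onto planted seeds and postemergence onto plants 2 to 18 cm tall (1- to 4-leaf stage). After twelve to sixteen days in a greenhouse, injury was visually rated against untreated controls from 0 (no effect) to 10 (complete control).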
# [2] = tested on: rape; test: Test B pre/postemergence rape; assay type: in vivo, Brassica napus
# Summary of the method: as §1
# [3] = tested on: surinam grass; test: Test B pre/postemergence surinam grass; assay type: in vivo, Brachiaria decumbens
# Summary of the method: as §1
# [4] = tested on: soybean; test: Test B pre/postemergence soybean; assay type: in vivo, Glycine max
# Summary of the method: as §1
# [5] = tested on: duck salad; test: Test B flood test duck salad; assay type: in vivo, Heteranthera limosa
# Summary of the method: (§2)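 Read-out is a visual response score from 0 (no effect) to 10 (complete control), assigned by comparison with untreated controls. Treatment was applied at the 2-leaf stage, and plants stayed in the greenhouse for twelve to sixteen days before scoring.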
# [6] = tested on: bedstraw; test: Test B pre/postemergence bedstraw; assay type: in vivo, Galium aparine
# Summary of the method: as §1
# [7] = tested on: purple nutsedge; test: Test B pre/postemergence purple nutsedge; assay type: in vivo, Cyperus rotundus
# Summary of the method: as §1
# [8] = tested on: blackgrass; test: Test B pre/postemergence blackgrass; assay type: in vivo, Alopecurus myosuroides
# Summary of the method: as §1
# [9] = tested on: smallflower flatsedge; test: Test B flood test smallflower flatsedge; assay type: in vivo, Cyperus difformis
# Summary of the method: as §2
# [10] = tested on: bamyardgrass; test: Test B flood test barnyardgrass; assay type: in vivo, Echinochloa crus-galli
# Summary of the method: as §2
# [11] = tested on: wheat; test: Test B pre/postemergence wheat; assay type: in vivo, Triticum aestivum
# Summary of the method: as §1
# [12] = tested on: cocklebur; test: Test B pre/postemergence cocklebur; assay type: in vivo, Xanthium strumarium
# Summary of the method: as §1
# [13] = tested on: morningglory; test: Test B pre/postemergence morningglory; assay type: in vivo, Ipomoea hederacea
# Summary of the method: as §1
# [14] = tested on: pigweed; test: Test B pre/postemergence pigweed; assay type: in vivo, Amaranthus retroflexus
# Summary of the method: as §1
# [15] = tested on: giant foxtail; test: Test B pre/postemergence giant foxtail; assay type: in vivo, Setaria faberii
# Summary of the method: as §1
# [16] = tested on: wild oat; test: Test B pre/postemergence wild oat; assay type: in vivo, Avena fatua
# Summary of the method: as §1
# [17] = Preemergence, Rate 62 g/ha, scale of 0 to 10 where 0 is no effect and 10 is complete control
# [18] = Preemergence, Rate 250 g/ha, scale of 0 to 10 where 0 is no effect and 10 is complete control
# [19] = Preemergence, Rate 500 g/ha, scale of 0 to 10 where 0 is no effect and 10 is complete control
# [20] = Rate 62 g/ha, Postemergence, scale 0 to 10, 0 no effect, 10 complete control
# [21] = Rate 125 g/ha, Postemergence, scale of 0 to 10 where 0 is no effect and 10 is complete control
# [22] = Rate 125 g/ha, Preemergence, scale of 0 to 10 where 0 is no effect and 10 is complete control
# [23] = Rate 250 g/ha, Postemergence, scale of 0 to 10 where 0 is no effect and 10 is complete control
# [24] = Rate 500 g/ha, Postemergence, scale 0 to 10, 0 no effect, 10 complete control
# [25] = Rate 62 g/ha, headed Pre-emergence (flood test species), scale 0 to 10 (0 no effect, 10 complete control)
# [26] = Rate 125 g/ha, Pre-emergence, flood test species, scale 0 to 10 where 0 is no effect and 10 is complete control
# [27] = Rate 250 g/ha, Pre-emergence, flood-test species, scale 0 to 10, 0 is no effect, 10 is complete control
# [28] = Rate 500 g/ha, Pre-emergence, flood test species, scale 0 to 10 (0 no effect, 10 complete control)
smiles,measurement,setting,value
CCC=CCn1c(=O)on(C(=O)N(c2ccc(F)cc2)C(C)C)c1=O [Compound 286],Velvetleaf plant response rating,[1]; [17],0
same,Velvetleaf plant response rating,[1]; [18],3
same,"Plant response rating, Velvetleaf",[1]; [19],5
same,Velvetleaf plant response rating,[1]; [20],0
same,Velvetleaf plant response rating,[1]; [21],0
same,Velvetleaf plant response rating,[1]; [22],0
same,"Plant response rating, Velvetleaf",[1]; [23],0
same,Rape plant response rating,[2]; [17],0
same,Rape plant response rating,[2]; [18],3
same,"Plant response rating, Rape",[2]; [19],7
same,Rape plant response rating,[2]; [20],0
same,Rape plant response rating,[2]; [21],2
same,Rape plant response rating,[2]; [22],0
same,"Plant response rating, Rape",[2]; [23],5
same,B. signalgrass plant response rating,[3]; [17],0
same,B. signalgrass plant response rating,[3]; [18],8
same,"Plant response rating, B. signalgrass",[3]; [19],8
same,B. signalgrass plant response rating,[3]; [20],0
same,B. signalgrass plant response rating,[3]; [21],0
same,B. signalgrass plant response rating,[3]; [22],3
same,"Plant response rating, B. signalgrass",[3]; [23],0
same,B. signalgrass plant response rating,[3]; [24],2
same,Soybean plant response rating,[4]; [17],0
same,Soybean plant response rating,[4]; [18],0
same,"Plant response rating, Soybean",[4]; [19],0
same,Soybean plant response rating,[4]; [20],1
same,Soybean plant response rating,[4]; [21],1
same,Soybean plant response rating,[4]; [22],0
same,"Plant response rating, Soybean",[4]; [23],2
same,Ducksalad plant response rating,[5]; [25],0
same,Ducksalad plant response rating,[5]; [26],0
same,Ducksalad plant response rating,[5]; [27],0
same,Ducksalad plant response rating,[5]; [28],0
same,Bedstraw plant response rating,[6]; [17],0
same,Bedstraw plant response rating,[6]; [18],0
same,"Plant response rating, Bedstraw",[6]; [19],0
same,Bedstraw plant response rating,[6]; [20],2
same,Bedstraw plant response rating,[6]; [21],2
same,Bedstraw plant response rating,[6]; [22],0
same,"Plant response rating, Bedstraw",[6]; [23],5
same,Bedstraw plant response rating,[6]; [24],6
same,Nutsedge plant response rating,[7]; [17],0
same,Nutsedge plant response rating,[7]; [18],0
same,Nutsedge plant response rating,[7]; [20],0
same,Nutsedge plant response rating,[7]; [21],0
same,Nutsedge plant response rating,[7]; [22],0
same,"Plant response rating, Nutsedge",[7]; [23],0
same,Blackgrass plant response rating,[8]; [17],0
same,Blackgrass plant response rating,[8]; [18],7
same,"Plant response rating, Blackgrass",[8]; [19],7
same,Blackgrass plant response rating,[8]; [20],0
same,Blackgrass plant response rating,[8]; [21],2
same,Blackgrass plant response rating,[8]; [22],0
same,"Plant response rating, Blackgrass",[8]; [23],5
same,Blackgrass plant response rating,[8]; [24],8
same,S. Flatsedge plant response rating,[9]; [25],0
same,S. Flatsedge plant response rating,[9]; [26],0
same,S. Flatsedge plant response rating,[9]; [27],0
same,S. Flatsedge plant response rating,[9]; [28],0
same,Barnyardgrass plant response rating,[10]; [25],0
same,Barnyardgrass plant response rating,[10]; [26],0
same,Barnyardgrass plant response rating,[10]; [27],0
same,Barnyardgrass plant response rating,[10]; [28],4
same,Wheat plant response rating,[11]; [17],0
same,Wheat plant response rating,[11]; [18],0
same,"Plant response rating, Wheat",[11]; [19],2
same,Wheat plant response rating,[11]; [20],0
same,Wheat plant response rating,[11]; [21],3
same,Wheat plant response rating,[11]; [22],0
same,"Plant response rating, Wheat",[11]; [23],3
same,Cocklebur plant response rating,[12]; [17],0
same,Cocklebur plant response rating,[12]; [18],0
same,"Plant response rating, Cocklebur",[12]; [19],0
same,Cocklebur plant response rating,[12]; [20],0
same,Cocklebur plant response rating,[12]; [21],0
same,Cocklebur plant response rating,[12]; [22],0
same,"Plant response rating, Cocklebur",[12]; [23],0
same,Cocklebur plant response rating,[12]; [24],0
same,Morningglory plant response rating,[13]; [17],0
same,Morningglory plant response rating,[13]; [18],0
same,"Plant response rating, Morningglory",[13]; [19],0
same,Morningglory plant response rating,[13]; [20],1
same,Morningglory plant response rating,[13]; [21],3
same,Morningglory plant response rating,[13]; [22],0
same,"Plant response rating, Morningglory",[13]; [23],8
same,Redroot pigweed plant response rating,[14]; [17],0
same,Redroot pigweed plant response rating,[14]; [18],2
same,"Plant response rating, Redroot pigweed",[14]; [19],10
same,Redroot pigweed plant response rating,[14]; [20],0
same,Redroot pigweed plant response rating,[14]; [21],3
same,Redroot pigweed plant response rating,[14]; [22],0
same,"Plant response rating, Redroot pigweed",[14]; [23],6
same,Giant foxtail plant response rating,[15]; [17],8
same,Giant foxtail plant response rating,[15]; [18],10
same,"Plant response rating, Giant foxtail",[15]; [19],10
same,Giant foxtail plant response rating,[15]; [20],0
same,Giant foxtail plant response rating,[15]; [21],0
same,Giant foxtail plant response rating,[15]; [22],10
same,"Plant response rating, Giant foxtail",[15]; [23],2
same,Wild oats plant response rating,[16]; [17],0
same,Wild oats plant response rating,[16]; [18],4
same,"Plant response rating, Wild oats",[16]; [19],6
same,Wild oats plant response rating,[16]; [20],0
same,Wild oats plant response rating,[16]; [21],0
same,"Plant response rating, Wild oats",[16]; [23],2
